Assay results taken from patent US20240383871A1, “COMPOUND USEFUL FOR PET-IMAGING OF BRUTON’S TYROSINE KINASE” (Bristol-Myers Squibb Company, priority 2021, published 2024).

Assay: In-vivo PET imaging in rhesus monkey to determine brain penetrance
Details: healthy rhesus monkey
Text: The non-human primate was kept immobilized in the extended imaging bed inside the gantry of the PET imaging system (MicroPET® P4, Siemens Preclinical Solutions, Knoxville, TN). The scanning region was a single bed position from approximately the top of skull and extending through the lower neck area, to fit into the 7.6 cm MicroPET system axial FOV. A 10-minute transmission scan was acquired using a ^57Co point source for the purpose of attenuation correction of the subsequent emission image. Approximately 0.96 mCi of [^11C]-(R)-4-(2-acryloyl-1,2,3,4-tetrahydroisoquinolin-5-yl)-5-fluoro-2,3-dimethyl-1H-indole-7-carboxamide was injected IV and a 60-minute dynamic PET image was acquired. PET images were reconstructed with a filtered back projection (FBP) or MAP algorithm with attenuation correction. Using the AMIDE software package, an ROI encompassing the whole brain was manually drawn in the PET images. Mean standardized uptake value (SUV), which is normalized with body weight (kg) and injected dose (mCi), was calculated and plotted as a function of time to obtain a TAC. […] In healthy rhesus monkey, as in WT mice. there is very low brain expression of BTK in a non-diseased state.

C=C[11C](=O)N1CCc2c(cccc2-c2c(F)cc(C(N)=O)c3[nH]c(C)c(C)c23)C1 [[^11C]-(R)-4-(2-acryloyl-1,2,3,4-tetrahydroisoquinolin-5-yl)-5-fluoro-2,3-dimethyl-1H-indole-7-carboxamide]
brain time-activity curve (TAC) behaviour: rapid brain penetration followed by washout
brain penetrance (baseline (PET ligand only), IV, 0-60 minutes): confirmed brain penetrance
brain uptake pattern (summed images 0-60 minutes post injection (FIG. 7)): Diffuse uptake was observed throughout the brain
